Experimental data reported in ChEMBL document CHEMBL4118139, “Novel naphthyloxy derivatives - Potent histamine H3 receptor ligands. Synthesis and pharmacological evaluation” (Bioorg Med Chem, 2018).
Active and inactive are the calls of the source. The rule behind the calls is not given here.

Key:
[1] = system: Mus musculus; experiment: Neurotoxicity in albino CF-1 mouse at 30 mg/kg, ip after 1 hr by rotarod test; type: toxicity, organism-based; conditions: in vivo
[2] = system: Mus musculus; experiment: Neurotoxicity in albino CF-1 mouse at 65 mg/kg after 1 hr by rotarod test; type: toxicity, organism-based; conditions: in vivo
[3] = system: Mus musculus; experiment: Neurotoxicity in albino CF-1 mouse at 50 mg/kg after 2 hrs by rotarod test; type: toxicity, organism-based; conditions: in vivo
[4] = system: Rattus norvegicus; experiment: Anticonvulsant activity in Sprague-Dawley rat assessed as protection against maximal electroshock-induced seizures at 30 mg/kg, po after 0.25 hrs; type: functional, organism-based
[5] = Neurotoxicity in po dosed Sprague-Dawley rat after 0.25 hrs by rotarod test; type: toxicity, organism-based; conditions: in vivo
[6] = system: Mus musculus; experiment: Neurotoxicity in albino CF-1 mouse at 30 mg/kg, ip after 0.25 hrs by rotarod test; type: toxicity, organism-based; conditions: in vivo
[7] = system: Mus musculus; experiment: Neurotoxicity in albino CF-1 mouse at 30 mg/kg, ip after 4 hrs by rotarod test; type: toxicity, organism-based; conditions: in vivo
[8] = Neurotoxicity in ip dosed Sprague-Dawley rat after 0.25 hrs by rotarod test; type: toxicity, organism-based; conditions: in vivo
[9] = system: Rattus norvegicus; experiment: Anticonvulsant activity in po dosed Sprague-Dawley rat assessed as protection against maximal electroshock-induced seizures after 1 hr; type: functional
[10] = system: HEK293; experiment: Cytotoxicity against HEK293 cells assessed as reduction in cell viability after 72 hrs by MTS assay; type: cell-based; conditions: Homo sapiens, HEK293, 72 h
[11] = system: Rattus norvegicus; experiment: Anticonvulsant activity in po Sprague-Dawley rat assessed as protection against subcutaneous pentylenetetrazole-induced seizures measured after 1 hr; type: functional
[12] = system: Mus musculus; experiment: Neurotoxicity in albino CF-1 mouse at 65 mg/kg after 2 hrs by rotarod test; type: toxicity, organism-based; conditions: in vivo
[13] = system: Rattus norvegicus; experiment: Anticonvulsant activity in Sprague-Dawley rat assessed as protection against maximal electroshock-induced seizures at 30 mg/kg, ip after 1 hr; type: functional, organism-based
[14] = system: Mus musculus; experiment: Anticonvulsant activity in albino CF-1 mouse assessed as protection against 32 mA current-induced seizure at 50 mg/kg, ip after 4 hrs by 6 Hz psychomotor test; type: functional, organism-based
[15] = Therapeutic index, ratio of ip dosed Sprague-Dawley rat TD50 to ip dosed Sprague-Dawley rat ED50 for MES assay; type: toxicity, organism-based; conditions: in vivo, read-out: TI
[16] = system: Mus musculus; experiment: Neurotoxicity in albino CF-1 mouse assessed as increase in subcutaneous pentylenetetrazole-induced continuous seizures at 50 mg/kg, ip measured after 1 hr; type: toxicity, organism-based; conditions: in vivo
[17] = system: Mus musculus; experiment: Neurotoxicity in albino CF-1 mouse at 50 mg/kg after 0.5 hrs by rotarod test; type: toxicity, organism-based; conditions: in vivo
[18] = system: Mus musculus; experiment: Anticonvulsant activity in ip dosed albino CF-1 mouse assessed as protection against maximal electroshock-induced seizures after 1 hr; type: functional; conditions: CF-1, ip
[19] = system: Mus musculus; experiment: Cognition enhancing effect in albino Swiss CD-1 mouse assessed as reversal of scopolamine-induced amnesia at 20 to 30 mg/kg, ip treated 30 mins prior to acquisition trial followed by scopolamine challenge immediately after acquisition trial by passive avoidance test (reference value: 39.31 +/- 4.01 secs); type: functional, organism-based
[20] = system: Rattus norvegicus; experiment: Anticonvulsant activity in Sprague-Dawley rat assessed as protection against maximal electroshock-induced seizures at 30 mg/kg, po after 4 hrs; type: functional, organism-based
[21] = system: Mus musculus; experiment: Anticonvulsant activity in albino CF-1 mouse assessed as protection against 44 mA current-induced seizure at 50 mg/kg, ip after 0.25 hrs by 6 Hz psychomotor test; type: functional, organism-based
[22] = system: Rattus norvegicus; experiment: Anticonvulsant activity in Sprague-Dawley rat assessed as protection against maximal electroshock-induced seizures at 30 mg/kg, po after 2 hrs; type: functional, organism-based
[23] = system: Mus musculus; experiment: Anticonvulsant activity in albino CF-1 mouse assessed as protection against maximal electroshock-induced seizures at 50 mg/kg, ip after 0.25 hrs; type: functional, organism-based
[24] = system: Mus musculus; experiment: Neurotoxicity in albino CF-1 mouse at 50 mg/kg after 4 hrs by rotarod test; type: toxicity, organism-based; conditions: in vivo
[25] = system: Mus musculus; experiment: Neurotoxicity in albino CF-1 mouse at 30 mg/kg, ip after 2 hrs by rotarod test; type: toxicity, organism-based; conditions: in vivo
[26] = system: Mus musculus; experiment: Neurotoxicity in albino CF-1 mouse at 50 mg/kg, ip after 4 hrs by rotarod test; type: toxicity, organism-based; conditions: in vivo
[27] = Therapeutic index, ratio of po dosed Sprague-Dawley rat TD50 to po dosed Sprague-Dawley rat ED50 for MES assay; type: toxicity, organism-based; conditions: in vivo, read-out: TI
[28] = system: Rattus norvegicus; experiment: Anticonvulsant activity in Sprague-Dawley rat assessed as protection against maximal electroshock-induced seizures at 30 mg/kg, ip after 0.5 hrs; type: functional, organism-based
[29] = system: IMR-32; experiment: Cytotoxicity against human IMR32 cells assessed as reduction in cell viability after 72 hrs by MTS assay; type: cell-based; conditions: IMR-32, 72 h
[30] = system: Rattus norvegicus; experiment: In vivo antagonist activity at H3 receptor in RAMH-induced dipsogenic ip dosed Wistar (Krf:(WI) WU) rat model assessed as inhibition of RAMH-water intake administered 30 mins prior to RAMH induction; type: functional
[31] = system: Rattus norvegicus; experiment: Anticonvulsant activity in Sprague-Dawley rat assessed as protection against maximal electroshock-induced seizures at 30 mg/kg, ip after 2 hrs; type: functional, organism-based
[32] = system: Rattus norvegicus; experiment: Anticonvulsant activity in ip dosed Sprague-Dawley rat assessed as protection against maximal electroshock-induced seizures after 0.25 hrs; type: functional
[33] = system: Rattus norvegicus; experiment: Anticonvulsant activity in Sprague-Dawley rat assessed as protection against maximal electroshock-induced seizures at 30 mg/kg, po after 0.5 hrs; type: functional, organism-based
[34] = system: Mus musculus; experiment: Neurotoxicity in albino CF-1 mouse at 65 mg/kg after 0.5 hrs by rotarod test; type: toxicity, organism-based; conditions: in vivo
[35] = biological target: D(3) dopamine receptor (Homo sapiens) (UniProt P35462); experiment: Displacement of [3H]-spiperone from human dopamine D3 receptor expressed in CHO cell membranes at 1 uM relative to haloperidol
D(3) dopamine receptor (Homo sapiens), sequence (P35462 whole entry): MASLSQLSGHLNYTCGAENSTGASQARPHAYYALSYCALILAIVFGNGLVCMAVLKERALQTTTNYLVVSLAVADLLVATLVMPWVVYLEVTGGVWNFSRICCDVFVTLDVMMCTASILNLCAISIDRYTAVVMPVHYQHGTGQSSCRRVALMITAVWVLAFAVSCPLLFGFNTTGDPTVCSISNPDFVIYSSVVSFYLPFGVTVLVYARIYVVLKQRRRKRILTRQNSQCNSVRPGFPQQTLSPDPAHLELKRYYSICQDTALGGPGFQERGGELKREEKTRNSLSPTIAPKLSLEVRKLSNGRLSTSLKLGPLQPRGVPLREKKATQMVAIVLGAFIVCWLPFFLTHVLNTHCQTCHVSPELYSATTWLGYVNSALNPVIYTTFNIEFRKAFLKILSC

[36] = Therapeutic index, ratio of ip dosed albino CF-1 mouse TD50 to ip dosed albino CF-1 mouse ED50 for MES assay; type: toxicity, organism-based; conditions: in vivo, read-out: TI
[37] = system: Mus musculus; experiment: Neurotoxicity in albino CF-1 mouse at 65 mg/kg after 4 hrs by rotarod test; type: toxicity, organism-based; conditions: in vivo
[38] = biological target: CYP3A4 (Homo sapiens, UniProt P08684); experiment: Inhibition of CYP3A4 (unknown origin) at 25 uM by CYP3A4 P450-Glo assay; type: ADME
CYP3A4, sequence (P08684 whole entry): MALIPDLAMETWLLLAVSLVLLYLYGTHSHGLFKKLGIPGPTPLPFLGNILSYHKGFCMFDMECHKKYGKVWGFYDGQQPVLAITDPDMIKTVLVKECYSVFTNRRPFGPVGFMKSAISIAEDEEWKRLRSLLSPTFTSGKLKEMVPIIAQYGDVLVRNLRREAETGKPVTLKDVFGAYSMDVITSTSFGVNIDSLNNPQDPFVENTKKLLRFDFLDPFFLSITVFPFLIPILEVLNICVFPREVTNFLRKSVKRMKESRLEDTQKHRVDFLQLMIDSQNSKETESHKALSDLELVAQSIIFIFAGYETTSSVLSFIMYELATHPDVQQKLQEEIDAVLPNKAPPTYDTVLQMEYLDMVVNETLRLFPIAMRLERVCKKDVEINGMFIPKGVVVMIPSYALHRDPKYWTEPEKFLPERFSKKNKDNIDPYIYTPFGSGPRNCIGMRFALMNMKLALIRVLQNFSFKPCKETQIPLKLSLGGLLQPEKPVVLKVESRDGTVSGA

[39] = system: Mus musculus; experiment: Anticonvulsant activity in albino CF-1 mouse assessed as protection against maximal electroshock-induced seizures at 50 mg/kg, ip after 0.5 hrs; type: functional, organism-based
[40] = biological target: 5-hydroxytryptamine receptor 2A (Homo sapiens, UniProt P28223); experiment: Displacement of [3H]-ketanserin from human 5-HT2A receptor expressed in CHO cell membranes after 1 hr
5-hydroxytryptamine receptor 2A, sequence (P28223 whole entry): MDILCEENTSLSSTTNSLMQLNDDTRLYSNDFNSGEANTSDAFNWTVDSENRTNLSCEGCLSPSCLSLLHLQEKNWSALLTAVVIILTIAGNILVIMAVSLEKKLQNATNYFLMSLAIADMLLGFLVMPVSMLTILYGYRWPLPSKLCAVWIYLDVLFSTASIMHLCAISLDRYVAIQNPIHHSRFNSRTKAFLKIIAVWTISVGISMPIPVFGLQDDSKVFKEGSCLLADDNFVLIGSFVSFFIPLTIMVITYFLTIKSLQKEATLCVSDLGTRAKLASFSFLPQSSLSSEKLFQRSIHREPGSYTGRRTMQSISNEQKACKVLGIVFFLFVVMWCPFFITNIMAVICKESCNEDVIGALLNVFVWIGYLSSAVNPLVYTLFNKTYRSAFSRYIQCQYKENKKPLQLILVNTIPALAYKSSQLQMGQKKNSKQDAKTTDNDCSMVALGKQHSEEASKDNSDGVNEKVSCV

[41] = system: Mus musculus; experiment: Neurotoxicity in albino CF-1 mouse at 50 mg/kg, ip after 2 hrs by rotarod test; type: toxicity, organism-based; conditions: in vivo
[42] = biological target: D(2) dopamine receptor (Homo sapiens) (UniProt P14416); experiment: Displacement of [3H]-spiperone from human dopamine D2 receptor expressed in CHO cell membranes at 1 uM relative to haloperidol
D(2) dopamine receptor (Homo sapiens), sequence (P14416 whole entry): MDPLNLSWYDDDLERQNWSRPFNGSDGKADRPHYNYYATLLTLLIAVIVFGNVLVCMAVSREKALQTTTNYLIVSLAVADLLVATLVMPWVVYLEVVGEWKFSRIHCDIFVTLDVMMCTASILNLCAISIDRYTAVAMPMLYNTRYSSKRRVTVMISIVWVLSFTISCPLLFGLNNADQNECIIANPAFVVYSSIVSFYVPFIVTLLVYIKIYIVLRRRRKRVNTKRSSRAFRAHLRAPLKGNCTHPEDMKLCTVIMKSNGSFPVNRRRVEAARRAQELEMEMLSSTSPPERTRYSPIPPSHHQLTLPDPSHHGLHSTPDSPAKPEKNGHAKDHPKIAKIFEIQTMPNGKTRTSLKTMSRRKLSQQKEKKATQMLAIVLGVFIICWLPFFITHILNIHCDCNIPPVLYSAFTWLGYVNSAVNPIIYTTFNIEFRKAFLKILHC

[43] = system: Mus musculus; experiment: Anticonvulsant activity in albino CF-1 mouse assessed as protection against maximal electroshock-induced seizures at 50 mg/kg, ip after 4 hrs; type: functional, organism-based
[44] = system: Mus musculus; experiment: Anticonvulsant activity in albino CF-1 mouse assessed as protection against 44 mA current-induced seizure at 50 mg/kg, ip after 2 hrs by 6 Hz psychomotor test; type: functional, organism-based
[45] = biological target: 5-hydroxytryptamine receptor 7 (Homo sapiens, UniProt P34969); experiment: Displacement of [3H]-5-carboxyamidotryptamine from human 5-HT7 receptor expressed in HEK293 cell membranes after 1 hr
5-hydroxytryptamine receptor 7, sequence (P34969 whole entry): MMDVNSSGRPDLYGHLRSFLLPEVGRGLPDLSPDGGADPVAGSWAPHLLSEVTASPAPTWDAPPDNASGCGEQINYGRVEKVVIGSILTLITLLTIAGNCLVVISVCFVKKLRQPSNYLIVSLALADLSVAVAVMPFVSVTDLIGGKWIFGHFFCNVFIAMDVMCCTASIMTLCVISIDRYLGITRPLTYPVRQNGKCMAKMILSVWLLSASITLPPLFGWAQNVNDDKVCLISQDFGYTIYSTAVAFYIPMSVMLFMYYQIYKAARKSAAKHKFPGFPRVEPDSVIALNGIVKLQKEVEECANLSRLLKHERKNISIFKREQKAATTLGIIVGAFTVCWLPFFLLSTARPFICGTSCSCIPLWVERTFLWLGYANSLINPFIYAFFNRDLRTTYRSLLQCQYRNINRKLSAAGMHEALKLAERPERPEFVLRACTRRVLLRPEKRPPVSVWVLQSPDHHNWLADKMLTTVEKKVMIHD

With c1ccc2c(OCCCCCN3CCCCC3)cccc2c1 the Activity [1] was “Non-Toxic”, the Activity [2] was “Non-Toxic” and the Activity [3] was “Non-Toxic”. For the same compound, the Activity [4] was “inactive”, the TD50 at 0.25 h [5] was > 500 mg/kg and the Activity [6] was “Non-Toxic”. For the same compound, the Activity [7] was “Non-Toxic”, the TD50 at 0.25 h [8] was 60.6 mg/kg and the ED50 [9] was 78.1 mg/kg. For the same compound, the IC50 [10] was > 50 µM, the ED50 [11] was > 250 mg/kg and the Activity [12] was “Non-Toxic”. The Activity [13] was “Active”, the Activity [14] was “inactive” and the selectivity ratio [15] was 3.4. The Activity [16] was “Non-Toxic”, the Activity [17] was “Non-Toxic” and the ED50 [18] was 19.2 mg/kg. The Activity [19] was “Active”, the Activity [20] was “inactive” and the Activity [21] was “inactive”. The Activity [22] was “inactive”, the Activity [23] was “Active” and the Activity [24] was “Non-Toxic”. For the same compound, the Activity [25] was “Non-Toxic”, the Activity [26] was “Non-Toxic” and the selectivity ratio [27] was > 6.4. The Activity [28] was “Active”, the IC50 [29] was > 50 µM and the ED50 [30] was 2.37 mg/kg. For the same compound, the Activity [31] was “Active”, the ED50 [32] was 17.8 mg/kg and the Activity [33] was “inactive”. For the same compound, the Activity [34] was “Non-Toxic”, the inhibition [35] was 12% and the selectivity ratio [36] was 4.9. For the same compound, the Activity [37] was “Non-Toxic”, the inhibition at 25 µM [38] was 50% and the Activity [39] was “Active”. For the same compound, the Ki [40] was 3.91 µM, the Activity [41] was “Non-Toxic” and the inhibition [42] was 2%. For the same compound, the Activity [43] was “inactive”, the Activity [44] was “inactive” and the Ki [45] was 2.31 µM.
